Key:
Assay in all cases: cells
Assay type in all cases: cell-based
[1] = test system: human bronchial epithelial cell line HBE; details: for IC50: Homo sapiens, HBE, read-out: IC50 against HBE
[2] = test system: human non-small-cell lung cancer A549 cells; details: A549, read-out: IC50 against A549
[3] = test system: human non-small-cell lung cancer H460 cells; details: NCI-H460, read-out: IC50 against H460

| Structure (SMILES) | IC50 [1] [µM] | IC50 [2] [µM] | IC50 [3] [µM] | selectivity towards cancerous cell lines over non-cancerous cell line ([1]; A549/H460 versus HBE, from IC50 values) |
| --- | --- | --- | --- | --- |
| COC[C@@]12CC[C@H](OC)[C@]34C(C([C@H](OC)[C@H]13)[C@]1(OC(C)=O)[C@H]3[C@@H](OC(=O)c5ccccc5)[C@](O)(C[C@H]34)[C@@H](OC)[C@@H]1O)N(C)C2 [Compound 33, hypaconitine] | 32.7 ± 4.56 | 14.3 ± 1.79 | 16.5 ± 2.22 |  |
| CCN1C[C@]2(COC)CC[C@H](OC)[C@]34C1C([C@H](OC)[C@H]23)[C@]1(OC(C)=O)[C@H]2[C@@H](OC(=O)c3ccccc3)[C@](O)(C[C@H]24)[C@@H](OC)[C@@H]1O [Compound 34, deoxyaconitine] | 31 ± 4.8 | 14.9 ± 4.02 | 14.6 ± 1.32 |  |
| CCN1C[C@]2(C)CC[C@H](O)[C@@]34C5C[C@@H]6[C@@H](OC)C[C@@](O)(C5[C@H]6O)[C@@H](CC23)C14 (stereo partly shown) [Compound 9, karacoline] | 49.7 ± 8.11 | 8.28 ± 0.41 | 9.69 ± 0.4 | higher selectivity |
| O=c1[nH]cc(F)c(=O)[nH]1 [Compound 5-FU, 5-fluorouracil, reference compound] | 8.93 ± 6.05 | 12.5 ± 8.81 | 6.16 ± 1.8 |  |
| CCN1C[C@]2(COC)CC[C@H](O)[C@@]34C5C[C@@H]6[C@@H](OC)C[C@](O)(C(CC23)C14)C5[C@H]6OC(C)=O (stereo partly shown) [Compound 30, condelphine] | 31.4 ± 6 | 16.4 ± 2.38 | 16 ± 1.15 |  |
| C=C1[C@H]2C[C@@]3([C@@H]1O)[C@@H](CC2=O)[C@]12[C@@H]4C[C@H]3[C@H]1N(CC)C[C@]4(C)CC[C@@H]2O [Compound 5, songorine] | 32.4 ± 2.62 | 21.2 ± 0.84 | 25.1 ± 0.59 |  |

— paper PMC9037614 (RSC Advances, 2021)
